From publication PMC7416410, “Synthesis, molecular docking and molecular dynamic simulation studies of 2-chloro-5-[(4-chlorophenyl)sulfamoyl]-N-(alkyl/aryl)-4-nitrobenzamide derivatives as antidiabetic agents” (BMC Chemistry, 2020)

Experiments:
α-amylase from malt = assay: α-Amylase inhibitory assay; type: biochemical; conditions: for IC50: in vitro
Source text: The analytical grade chemicals and reagents were used as such in experiments without any purification. Decibel melting point apparatus was used for checking the melting point of the synthesized compounds and are reported as uncorrected. The silica gel-precoated aluminum sheets for thin-layer chromatography (TLC) were employed to keep a vigil of the reaction progress. FT-IR (Diffuse Reflectance Method (DRS) -8000A, Shimadzu, Japan) spectrophotometer was utilized for recording infrared spectra and the Bruker Avance III, 400 MHz NMR spectrometer was employed for nuclear magnetic resonance spectra (^1H NMR, ^13C NMR; Chemical shift δ values- ppm). α-Glucosidase from Saccharomyces cerevisiae (EC 3.2.1.20, Sigma Aldrich) and α-amylase from malt (232-588-1, HiMedia) have been used for in vitro studies.
Xiao et al., and Yoshikawa et al., illustrated a method, with little modification this method has been adopted for measuring the activity.

[1] = target: T1, α-Glucosidase from Saccharomyces cerevisiae (Saccharomyces cerevisiae, UniProt P53341); assay: α-Glucosidase inhibitory assay; type: biochemical; conditions: for IC50: in vitro
T1 construct: purchased Sigma Aldrich
T1 sequence (P53341 whole entry): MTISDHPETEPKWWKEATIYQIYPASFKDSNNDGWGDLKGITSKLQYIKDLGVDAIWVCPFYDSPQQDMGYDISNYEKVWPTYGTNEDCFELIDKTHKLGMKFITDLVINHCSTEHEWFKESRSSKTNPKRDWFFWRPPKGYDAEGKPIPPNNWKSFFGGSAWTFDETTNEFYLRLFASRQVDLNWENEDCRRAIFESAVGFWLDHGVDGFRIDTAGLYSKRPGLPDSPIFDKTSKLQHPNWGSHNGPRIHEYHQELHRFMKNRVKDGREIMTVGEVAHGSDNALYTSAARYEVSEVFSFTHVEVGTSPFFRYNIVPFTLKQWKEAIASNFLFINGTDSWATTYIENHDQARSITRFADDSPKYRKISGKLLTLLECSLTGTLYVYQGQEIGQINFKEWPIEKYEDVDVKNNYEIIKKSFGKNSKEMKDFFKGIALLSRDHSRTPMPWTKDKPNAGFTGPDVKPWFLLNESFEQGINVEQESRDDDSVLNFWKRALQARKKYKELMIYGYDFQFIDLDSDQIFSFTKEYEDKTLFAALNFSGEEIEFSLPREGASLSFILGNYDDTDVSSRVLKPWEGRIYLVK
Source text: The analytical grade chemicals and reagents were used as such in experiments without any purification. Decibel melting point apparatus was used for checking the melting point of the synthesized compounds and are reported as uncorrected. The silica gel-precoated aluminum sheets for thin-layer chromatography (TLC) were employed to keep a vigil of the reaction progress.
The method adopted for performing α-glucosidase inhibitory assay was similar to our prevenient study, Thakral and Singh.

With `C[C@H]1O[C@H](O[C@H]2[C@H](O)[C@@H](O)[C@@H](O[C@H]3[C@H](O)[C@@H](O)C(O)O[C@@H]3CO)O[C@@H]2CO)[C@H](O)[C@@H](O)[C@@H]1N[C@H]1C=C(CO)[C@@H](O)[C@H](O)[C@H]1O` (stereo partly drawn) [Acarbose, reference compound] as the compound, how does the IC50 (α-amylase from malt) read?
The IC50 was 5.6 ± 0.3 µM.

With `Cc1c(Cl)cccc1NC(=O)c1cc(S(=O)(=O)Nc2ccc(Cl)cc2)c([N+](=O)[O-])cc1Cl` [Compound 5l, 2-Chloro-N-(3-chloro-2-methylphenyl)-5-[(4-chlorophenyl)sulfamoyl]-4-nitrobenzamide] as the compound, how does the melting point read?
Its melting point is 212 to 214 °C.

And the IC50 (α-amylase from malt)?
The IC50 was 6.3 ± 0.42 µM.

And the IC50 [1]?
Its IC50 is 29 ± 0.86 µM.

Which results are given for `O=C(Nc1ccc(Br)cc1)c1cc(S(=O)(=O)Nc2ccc(Cl)cc2)c([N+](=O)[O-])cc1Cl` [Compound 5f, N-(4-Bromophenyl)-2-chloro-5-[(4-chlorophenyl)sulfamoyl]-4-nitrobenzamide]?
melting point: 200 to 202 °C; IC50 (α-amylase from malt): 16 ± 0.33 µM; IC50 [1]: 50.2 ± 0.89 µM

With `Cc1ccc([N+](=O)[O-])cc1NC(=O)c1cc(S(=O)(=O)Nc2ccc(Cl)cc2)c([N+](=O)[O-])cc1Cl` [Compound 5o, 2-Chloro-5-[(4-chlorophenyl)sulfamoyl]-N-(2-methyl-5-nitrophenyl)-4-nitrobenzamide] as the compound, how does the melting point read?
The melting point was 203 to 205 °C.

And the “inhibitory activity against α-amylase in comparison to standard drug acarbose” value (α-amylase from malt; fold relative to acarbose)?
Its value is “around six times”.

What about the IC50 (α-amylase from malt) of the same compound?
Its IC50 is 0.9 ± 0.31 µM.

What about the “inhibitory potential against α-glucosidase in comparison to standard drug acarbose” value ([1]; fold relative to acarbose) of the same compound?
Its value is “fourfold”.

What about the IC50 [1] of the same compound?
Its IC50 is 10.8 ± 0.52 µM.

Which results are given for `O=C(Nc1ccncc1)c1cc(S(=O)(=O)Nc2ccc(Cl)cc2)c([N+](=O)[O-])cc1Cl` [Compound 5v, 2-Chloro-5-[(4-chlorophenyl)sulfamoyl]-4-nitro-N-(pyridin-4-yl)benzamide]?
melting point: 197 to 199 °C; IC50 (α-amylase from malt): 40.4 ± 0.87 µM; IC50 [1]: 52.4 ± 1.92 µM

Which results are given for `O=C(Nc1ccccc1[N+](=O)[O-])c1cc(S(=O)(=O)Nc2ccc(Cl)cc2)c([N+](=O)[O-])cc1Cl` [Compound 5k, 2-Chloro-5-[(4-chlorophenyl)sulfamoyl]-4-nitro-N-(2-nitrophenyl)benzamide]?
melting point: 150 to 152 °C; IC50 (α-amylase from malt): 12.5 ± 0.91 µM; IC50 [1]: 36.9 ± 1.3 µM

For `CCCNC(=O)c1cc(S(=O)(=O)Nc2ccc(Cl)cc2)c([N+](=O)[O-])cc1Cl` [Compound 5s, 2-Chloro-5-[(4-chlorophenyl)sulfamoyl]-4-nitro-N-propylbenzamide], which melting point is on record?
Its melting point is 116 to 118 °C.

What about the IC50 (α-amylase from malt) of the same compound?
The IC50 was 48.05 ± 0.23 µM.

What about the IC50 [1] of the same compound?
The IC50 was 106.2 ± 0.61 µM.

Which melting point does the source give for `O=C(NCc1ccco1)c1cc(S(=O)(=O)Nc2ccc(Cl)cc2)c([N+](=O)[O-])cc1Cl` [Compound 5u, 2-Chloro-5-[(4-chlorophenyl)sulfamoyl]-N-[(furan-2-yl)methyl]-4-nitrobenzamide] here?
Its melting point is 191 to 193 °C.

What about the IC50 (α-amylase from malt) of the same compound?
Its IC50 is 38.2 ± 0.34 µM.

What about the IC50 [1] of the same compound?
The IC50 was 89 ± 1.76 µM.

What does the source list for `Cc1c(NC(=O)c2cc(S(=O)(=O)Nc3ccc(Cl)cc3)c([N+](=O)[O-])cc2Cl)cccc1[N+](=O)[O-]` [Compound 5m, 2-Chloro-5-[(4-chlorophenyl)sulfamoyl]-N-(2-methyl-3-nitrophenyl)-4-nitrobenzamide]?
melting point: 170 to 172 °C; IC50 (α-amylase from malt): 1.52 ± 0.84 µM; IC50 [1]: 24.5 ± 1.23 µM

What does the source list for `COc1ccc(NC(=O)c2cc(S(=O)(=O)Nc3ccc(Cl)cc3)c([N+](=O)[O-])cc2Cl)cc1` [Compound 5d, 2-Chloro-5-[(4-chlorophenyl)sulfamoyl]-N-(4-methoxyphenyl)-4-nitrobenzamide]?
melting point: 150 to 152 °C; IC50 (α-amylase from malt): 38 ± 0.51 µM; IC50 [1]: 38.57 ± 0.01 µM

With `O=C(Nc1cccc(Cl)c1)c1cc(S(=O)(=O)Nc2ccc(Cl)cc2)c([N+](=O)[O-])cc1Cl` [Compound 5i, 2-Chloro-N-(3-chlorophenyl)-5-[(4-chlorophenyl)sulfamoyl]-4-nitrobenzamide] as the compound, how does the melting point read?
The melting point was 220 to 222 °C.

And the IC50 (α-amylase from malt)?
Its IC50 is 27.1 ± 0.51 µM.

What about the IC50 [1] of the same compound?
Its IC50 is 14 ± 0.93 µM.

For `Cc1ccccc1NC(=O)c1cc(S(=O)(=O)Nc2ccc(Cl)cc2)c([N+](=O)[O-])cc1Cl` [Compound 5c, 2-Chloro-5-[(4-chlorophenyl)sulfamoyl]-N-(2-methylphenyl)-4-nitrobenzamide], which melting point is on record?
The melting point was 88 to 90 °C.

What about the IC50 (α-amylase from malt) of the same compound?
Its IC50 is 8 ± 0.71 µM.

And the IC50 [1]?
Its IC50 is 26.8 ± 1.13 µM.

For `Cc1ccc(NC(=O)c2cc(S(=O)(=O)Nc3ccc(Cl)cc3)c([N+](=O)[O-])cc2Cl)cc1` [Compound 5a, 2-Chloro-5-[(4-chlorophenyl)sulfamoyl]-N-(4-methylphenyl)-4-nitrobenzamide], which melting point is on record?
The melting point was 90 to 92 °C.

What about the IC50 (α-amylase from malt) of the same compound?
Its IC50 is 7.4 ± 0.15 µM.

What about the IC50 [1] of the same compound?
The IC50 was 31.4 ± 1.66 µM.

With `O=C(Nc1ccccc1Br)c1cc(S(=O)(=O)Nc2ccc(Cl)cc2)c([N+](=O)[O-])cc1Cl` [Compound 5h, N-(2-Bromophenyl)-2-chloro-5-[(4-chlorophenyl)sulfamoyl]-4-nitrobenzamide] as the compound, how does the melting point read?
The melting point was 180 to 182 °C.

And the IC50 (α-amylase from malt)?
Its IC50 is 19.3 ± 0.63 µM.

What about the IC50 [1] of the same compound?
Its IC50 is 40.6 ± 1.49 µM.

Which melting point does the source give for `COc1ccccc1NC(=O)c1cc(S(=O)(=O)Nc2ccc(Cl)cc2)c([N+](=O)[O-])cc1Cl` [Compound 5e, 2-Chloro-5-[(4-chlorophenyl)sulfamoyl]-N-(2-methoxyphenyl)-4-nitrobenzamide] here?
Its melting point is 164 to 166 °C.

What about the IC50 (α-amylase from malt) of the same compound?
The IC50 was 50.3 ± 0.21 µM.

And the IC50 [1]?
The IC50 was 41.7 ± 1.08 µM.

With `Cc1cccc(NC(=O)c2cc(S(=O)(=O)Nc3ccc(Cl)cc3)c([N+](=O)[O-])cc2Cl)c1` [Compound 5b, 2-Chloro-5-[(4-chlorophenyl)sulfamoyl]-N-(3-methylphenyl)-4-nitrobenzamide] as the compound, how does the melting point read?
Its melting point is 102 to 104 °C.

And the IC50 (α-amylase from malt)?
The IC50 was 5.3 ± 1.23 µM.

What about the IC50 [1] of the same compound?
The IC50 was 24.8 ± 2.69 µM.

Which melting point does the source give for `O=C(Nc1ccccc1Cl)c1cc(S(=O)(=O)Nc2ccc(Cl)cc2)c([N+](=O)[O-])cc1Cl` [Compound 5j, 2-Chloro-N-(2-chlorophenyl)-5-[(4-chlorophenyl)sulfamoyl]-4-nitrobenzamide] here?
The melting point was 176 to 178 °C.

What about the IC50 (α-amylase from malt) of the same compound?
Its IC50 is 20.9 ± 1.24 µM.

And the IC50 [1]?
Its IC50 is 15.8 ± 0.9 µM.

Which melting point does the source give for `Cc1cc([N+](=O)[O-])ccc1NC(=O)c1cc(S(=O)(=O)Nc2ccc(Cl)cc2)c([N+](=O)[O-])cc1Cl` [Compound 5p, 2-Chloro-5-[(4-chlorophenyl)sulfamoyl]-N-(2-methyl-4-nitrophenyl)-4-nitrobenzamide] here?
Its melting point is 104 to 106 °C.

And the IC50 (α-amylase from malt)?
Its IC50 is 2.1 ± 0.52 µM.

What about the IC50 [1] of the same compound?
Its IC50 is 19.5 ± 0.43 µM.

Which melting point does the source give for `O=C(Nc1cccc([N+](=O)[O-])c1)c1cc(S(=O)(=O)Nc2ccc(Cl)cc2)c([N+](=O)[O-])cc1Cl` [Compound 5r, 2-Chloro-5-[(4-chlorophenyl)sulfamoyl]-4-nitro-N-(3-nitrophenyl)benzamide] here?
The melting point was 135 to 137 °C.

What about the IC50 (α-amylase from malt) of the same compound?
The IC50 was 15.3 ± 1.24 µM.

What about the IC50 [1] of the same compound?
The IC50 was 34.4 ± 0.62 µM.

What does the source list for `O=C(Nc1cccc(Br)c1)c1cc(S(=O)(=O)Nc2ccc(Cl)cc2)c([N+](=O)[O-])cc1Cl` [Compound 5g, N-(3-Bromophenyl)-2-chloro-5-[(4-chlorophenyl)sulfamoyl]-4-nitrobenzamide]?
melting point: 181 to 183 °C; IC50 (α-amylase from malt): 16.7 ± 0.41 µM; IC50 [1]: 35.9 ± 0.6 µM

Which melting point does the source give for `CCCCNC(=O)c1cc(S(=O)(=O)Nc2ccc(Cl)cc2)c([N+](=O)[O-])cc1Cl` [Compound 5t, N-Butyl-2-chloro-5-[(4-chlorophenyl)sulfamoyl]-4-nitrobenzamide] here?
The melting point was 111 to 113 °C.

What about the IC50 (α-amylase from malt) of the same compound?
The IC50 was 55.1 ± 0.71 µM.

And the IC50 [1]?
Its IC50 is 131 ± 2.42 µM.

With `O=C(Nc1ccc([N+](=O)[O-])cc1)c1cc(S(=O)(=O)Nc2ccc(Cl)cc2)c([N+](=O)[O-])cc1Cl` [Compound 5q] as the compound, how does the melting point read?
The melting point was 177 to 179 °C.

And the IC50 (α-amylase from malt)?
Its IC50 is 11.2 ± 0.67 µM.

What about the IC50 [1] of the same compound?
Its IC50 is 43.9 ± 1.18 µM.

For `O=C(Nc1ccc([N+](=O)[O-])cc1Cl)c1cc(S(=O)(=O)Nc2ccc(Cl)cc2)c([N+](=O)[O-])cc1Cl` [Compound 5n, 2-Chloro-N-(2-chloro-4-nitrophenyl)-5-[(4-chlorophenyl)sulfamoyl]-4-nitrobenzamide], which melting point is on record?
The melting point was 214 to 216 °C.

What about the IC50 (α-amylase from malt) of the same compound?
The IC50 was 35.3 ± 0.45 µM.

And the IC50 [1]?
Its IC50 is 29.5 ± 1.53 µM.
